In this assay the test system is DLD-1 BRCA2−/− cells. As to the kind of experiment: Homologous recombination synthetic lethal inhibition of proliferation, DLD-1 BRCA2-/- (Cell Titre Glo 3D). In kind it is cell-based. The following applies: for IC50: Homo sapiens. In short, it runs like this: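 DLD-1 BRCA2−/− and parental DLD-1 cells exposed to 10-point dose range (10 μM to 0.51 nM, 3-fold) in RPMI/10% FBS at 37 °C, with medium and compound replenished on day 6. Viability by Cell Titre Glo 3D luminescence at day 7 (DLD-1) or day 12 (BRCA2−/−); IC50 as concentration halving maximum signal.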

[1] abbreviates: DLD-1, DLD-1 BRCA2-/- proliferation, column head only partly shown, read-out: POLQ PD Prolif Lumin (converted).
[2] abbreviates: DLD-1, proliferation, luminescence, taken as DLD-1 BRCA2-/-, read-out: POLQ PD Prolif Lumin (converted).
The mark [3] stands for this setting: DLD-1, first proliferation column (c5), DLD-1 BRCA2-/-, read-out: POLQ PD Prolif Lumin (converted).
[4] abbreviates: DLD-1, first proliferation column (c5), taken as DLD-1 BRCA2-/-, read-out: POLQ PD Prolif Lumin (converted).
Setting [5] is: DLD-1, DLD-1 BRCA2 −/− cells, mean, read-out: POLQ PD Prolif Lumin BRCA2 −/− mean pIC50 (converted).

Like-named read-outs stand apart in the source and are kept apart here.

Regarding `Cc1ccnc(Cn2c(-c3ccc(N4CCNCC4)cc3Cl)nc3c(OC4(C)CC4)ncnc32)c1` [Example T235, 8-(2-chloro-4-(piperazin-1-yl)phenyl)-6-(1-methylcyclopropoxy)-9-((4-methylpyridin-2-yl)methyl)-9H-purine], under setting [1], the IC50 was 398 nM.
`Cc1ccnc(Cn2c(-c3ccc(C(=O)N(C)CC4(O)CC4)cc3Cl)nc3c(OC4(C)CC4)ncnc32)c1` [Example T462, 3-chloro-N-((1-hydroxycyclopropyl)methyl)-N-methyl-4-(6-(1-methylcyclopropoxy)-9-((4-methylpyridin-2-yl)methyl)-9H-purin-8-yl)benzamide]: under setting [2], the IC50 is 1580 nM.
Same read-out and setting: in the case of `Cc1ccnc(Cn2c(-c3ccc(C(=O)N4CCC[C@H]4C#N)cc3Cl)nc3c(OC4(C)CC4)ncnc32)c1` [Example T404, (S)-1-(3-chloro-4-(6-(1-methylcyclopropoxy)-9-((4-methylpyridin-2-yl)methyl)-9H-purin-8-yl)benzoyl)pyrrolidine-2-carbonitrile] it was 1260 nM.
As for `CC(CCOc1ccc(-c2nc3c(OC4(C)CC4)ncnc3n2Cc2ccccc2C2CC2)c(Cl)c1)C(=O)O` (single isomer, unassigned) [Example T600, 4-(3-chloro-4-(9-(2-cyclopropylbenzyl)-6-(1-methylcyclopropoxy)-9H-purin-8-yl)phenoxy)-2-methylbutanoic acid], the “POLQ PD Prolif Lumin” value (DLD-1 BRCA2-/-) is on record as 6.3.
Regarding `Cc1cnc(Cn2c(-c3ccc(OCCN4CC(O)C4)cc3Cl)nc3c(OC4(C)CC4)ncnc32)s1` [Example T141, 1-(2-(3-chloro-4-(6-(1-methylcyclopropoxy)-9-((5-methylthiazol-2-yl)methyl)-9H-purin-8-yl)phenoxy)ethyl)azetidin-3-ol], the IC50 under setting [3] is 501 nM.
As for `Cc1ccnc(Cn2c(-c3ccc(OCC(=O)NCC(C)(C)O)cc3Cl)nc3c(OC4(C)CC4)ncnc32)c1` [Example T517, 2-(3-chloro-4-(6-(1-methylcyclopropoxy)-9-((4-methylpyridin-2-yl)methyl)-9H-purin-8-yl)phenoxy)-N-(2-hydroxy-2-methylpropyl)acetamide], the IC50 under setting [3] was 398 nM.
The same measure, in the same setting: in the case of `Cc1ccnc(Cn2c(-c3ccc(OCC(=O)NC(C)(C)CO)cc3Cl)nc3c(OC4(C)CC4)ncnc32)c1` [Example T519, 2-(3-chloro-4-(6-(1-methylcyclopropoxy)-9-((4-methylpyridin-2-yl)methyl)-9H-purin-8-yl)phenoxy)-N-(1-hydroxy-2-methylpropan-2-yl)acetamide] it was 316 nM.
In the case of `Cc1ccnc(Cn2c(-c3ccc(OCC(=O)NC[C@H](C)F)cc3Cl)nc3c(OC4(C)CC4)ncnc32)c1` [Example T327, (S)-2-(3-chloro-4-(6-(1-methylcyclopropoxy)-9-((4-methylpyridin-2-yl)methyl)-9H-purin-8-yl)phenoxy)-N-(2-fluoropropyl)acetamide], the IC50 under setting [4] is 200 nM.
Consider `Cc1ccnc(Cn2c(-c3ccc(OCC(F)(F)CO)cc3Cl)nc3c(OC4(C)CC4)ncnc32)c1` [Example T98, 3-(3-chloro-4-(6-(1-methylcyclopropoxy)-9-((4-methylpyridin-2-yl)methyl)-9H-purin-8-yl)phenoxy)-2,2-difluoropropan-1-ol], for which the IC50 under setting [5] is 100 nM.
As for `Cc1ccnc(Cn2c(-c3ccc(OCC(=O)N(C)C)cc3Cl)nc3c(OC4(C)CC4)ncnc32)c1` [Example T216, 2-(3-chloro-4-(6-(1-methylcyclopropoxy)-9-((4-methylpyridin-2-yl)methyl)-9H-purin-8-yl)phenoxy)-N,N-dimethylacetamide], the IC50 under setting [1] is 316 nM.
Same read-out and setting: in the case of `COC(=O)NCCc1ccc(-c2nc3c(OC4(C)CC4)ncnc3n2Cc2cc(C)ccn2)c(Cl)c1` [Example T222, methyl (3-chloro-4-(6-(1-methylcyclopropoxy)-9-((4-methylpyridin-2-yl)methyl)-9H-purin-8-yl)phenethyl)carbamate] it was 200 nM.
Regarding `Cc1ccnc(Cn2c(-c3ccc(OCC(=O)NC4COC4)cc3Cl)nc3c(OC4(C)CC4)ncnc32)c1` [Example T323, 2-(3-chloro-4-(6-(1-methylcyclopropoxy)-9-((4-methylpyridin-2-yl)methyl)-9H-purin-8-yl)phenoxy)-N-(oxetan-3-yl)acetamide], the IC50 under setting [4] was 200 nM.
For `CO[C@H]1CCN(C(=O)c2ccc(-c3nc4c(OC5(C)CC5)ncnc4n3Cc3cc(C)ccn3)c(Cl)c2)C1` [Example T465, (S)-(3-chloro-4-(6-(1-methylcyclopropoxy)-9-((4-methylpyridin-2-yl)methyl)-9H-purin-8-yl)phenyl)(3-methoxypyrrolidin-1-yl)methanone], under setting [2], the IC50 was 631 nM.
As for `Cc1ccnc(Cn2c(-c3ccc(N4CC[C@H](C(N)=O)C4)cc3Cl)nc3c(OC4(C)CC4)ncnc32)c1` [Example T340, (S)-1-(3-chloro-4-(6-(1-methylcyclopropoxy)-9-((4-methylpyridin-2-yl)methyl)-9H-purin-8-yl)phenyl)pyrrolidine-3-carboxamide], under setting [4], the IC50 is 1260 nM.
For the molecule `Cc1ccnc(Cn2c(-c3ccc(OC(C)CO)cc3Cl)nc3c(OC4(C)CC4)ncnc32)c1` (single isomer, unassigned) [Example T127, 2-(3-chloro-4-(6-(1-methylcyclopropoxy)-9-((4-methylpyridin-2-yl)methyl)-9H-purin-8-yl)phenoxy)propan-1-ol], the IC50 under setting [3] is 251 nM.
Consider `CC1(Oc2ncnc3c2nc(-c2ccc(OCCN4CCNCC4C(F)F)cc2Cl)n3Cc2ccccc2)CC1` (stereo not drawn) [Example T567, 9-benzyl-8-(2-chloro-4-(2-(2-(difluoromethyl)piperazin-1-yl)ethoxy)phenyl)-6-(1-methylcyclopropoxy)-9H-purine], for which the IC50 under setting [3] was 158 nM.
In the case of `Cc1ccnc(Cn2c(-c3ccc(OC4COC4)cc3Cl)nc3c(OC4(C)CC4)ncnc32)c1` [Example T103, 8-(2-chloro-4-(oxetan-3-yloxy)phenyl)-6-(1-methylcyclopropoxy)-9-((4-methylpyridin-2-yl)methyl)-9H-purine], the IC50 under setting [5] was 158 nM.
Same read-out and setting: next, `Cc1nc(Cn2c(-c3ccc(CC(N)=O)cc3Cl)nc3c(OC4(C)CC4)ncnc32)cs1` [Example T6, 2-(3-chloro-4-(6-(1-methylcyclopropoxy)-9-((2-methylthiazol-4-yl)methyl)-9H-purin-8-yl)phenyl)acetamide]: 7940 nM.
As to `Cc1ccnc(Cn2c(-c3ccc(O[C@@H]4CC[C@@H](O)C4)cc3Cl)nc3c(OC4(C)CC4)ncnc32)c1` (relative stereo) [Example T330, rel-(1R,3R)-3-(3-chloro-4-(6-(1-methylcyclopropoxy)-9-((4-methylpyridin-2-yl)methyl)-9H-purin-8-yl)phenoxy)cyclopentan-1-ol], the IC50 under setting [4] was 200 nM.
`Cc1ccnc(Cn2c(-c3ccc(C(=O)N4CCCC4)cc3Cl)nc3c(OC4(C)CC4)ncnc32)c1` [Example T309, (3-chloro-4-(6-(1-methylcyclopropoxy)-9-((4-methylpyridin-2-yl)methyl)-9H-purin-8-yl)phenyl)(pyrrolidin-1-yl)methanone]: the IC50 under setting [4] was 631 nM.
As for `Cc1ccnc(Cn2c(-c3ccc(C(=O)NC(C)(C)CO)cc3Cl)nc3c(OC4(C)CC4)ncnc32)c1` [Example T362, 3-chloro-N-(1-hydroxy-2-methylpropan-2-yl)-4-(6-(1-methylcyclopropoxy)-9-((4-methylpyridin-2-yl)methyl)-9H-purin-8-yl)benzamide], under setting [4], the IC50 was 631 nM.
For `CC1NCCN(CCOc2ccc(-c3nc4c(OC5(C)CC5)ncnc4n3Cc3ccccc3)c(Cl)c2)C1=O` (single isomer, unassigned; isomer 2) [Example R14, 1-(2-(4-(9-benzyl-6-(1-methylcyclopropoxy)-9H-purin-8-yl)-3-chlorophenoxy)ethyl)-3-methylpiperazin-2-one (Isomer 2)], under “DLD-1 BRCA2−/− cells, 12 days”, the “POLQ PD Prolif Lumin BRCA2 −/− mean pIC50” value came out at 6.8.
Turning to `Cc1ccnc(Cn2c(-c3ccc(OCC(=O)NCCO)cc3Cl)nc3c(OC4(C)CC4)ncnc32)c1` [Example T226, 2-(3-chloro-4-(6-(1-methylcyclopropoxy)-9-((4-methylpyridin-2-yl)methyl)-9H-purin-8-yl)phenoxy)-N-(2-hydroxyethyl)acetamide], the IC50 under setting [1] was 158 nM.
For `Cc1ccnc(Cn2c(-c3ccc(N4CCC(O)CC4=O)cc3Cl)nc3c(OC4(C)CC4)ncnc32)c1` (racemic) [Example T321, 1-(3-chloro-4-(6-(1-methylcyclopropoxy)-9-((4-methylpyridin-2-yl)methyl)-9H-purin-8-yl)phenyl)-4-hydroxypiperidin-2-one], under setting [4], the IC50 is 3980 nM.
In the case of `CC1(Oc2ncnc3c2nc(-c2ccc(CC(N)=O)cc2Cl)n3Cc2nc(C3CC3)no2)CC1` [Example T23, 2-(3-chloro-4-(9-((3-cyclopropyl-1,2,4-oxadiazol-5-yl)methyl)-6-(1-methylcyclopropoxy)-9H-purin-8-yl)phenyl)acetamide], the IC50 under setting [5] was 1260 nM.
For `Cc1nc(Cn2c(-c3ccc(CC(N)=O)cc3Cl)nc3c(OC4(C)CC4)ncnc32)sc1C` [Example T24, 2-(3-chloro-4-(9-((4,5-dimethylthiazol-2-yl)methyl)-6-(1-methylcyclopropoxy)-9H-purin-8-yl)phenyl)acetamide], the IC50 under setting [5] is 794 nM.
For `Cc1ccnc(Cn2c(-c3ccc(OCC(=O)N(C)CC4(O)CC4)cc3Cl)nc3c(OC4(C)CC4)ncnc32)c1` [Example T583, 2-(3-chloro-4-(6-(1-methylcyclopropoxy)-9-((4-methylpyridin-2-yl)methyl)-9H-purin-8-yl)phenoxy)-N-((1-hydroxycyclopropyl)methyl)-N-methylacetamide], the IC50 (DLD-1, first proliferation column, DLD-1 BRCA2-/-, read-out: POLQ PD Prolif Lumin (converted)) was 2000 nM.

The values above are taken from patent US20250195530A1, “POLQ INHIBITORS” (ASTRAZENECA AB, priority 2022, published 2025).
